Our source for the inhibition values is patent US5916876A, “Peptide inhibitors of leukocyte adhesion” (Centocor, Inc., priority 1994, dated 1999).

Residues, ends and D or L forms follow the SMILES beside them.

The target of the assay is T1, human P-selectin (Homo sapiens, UniProt P16109).
T1 construct: from tissue; host or cells: outdated human platelet packs from a blood bank
T1 sequence (P16109 42-830): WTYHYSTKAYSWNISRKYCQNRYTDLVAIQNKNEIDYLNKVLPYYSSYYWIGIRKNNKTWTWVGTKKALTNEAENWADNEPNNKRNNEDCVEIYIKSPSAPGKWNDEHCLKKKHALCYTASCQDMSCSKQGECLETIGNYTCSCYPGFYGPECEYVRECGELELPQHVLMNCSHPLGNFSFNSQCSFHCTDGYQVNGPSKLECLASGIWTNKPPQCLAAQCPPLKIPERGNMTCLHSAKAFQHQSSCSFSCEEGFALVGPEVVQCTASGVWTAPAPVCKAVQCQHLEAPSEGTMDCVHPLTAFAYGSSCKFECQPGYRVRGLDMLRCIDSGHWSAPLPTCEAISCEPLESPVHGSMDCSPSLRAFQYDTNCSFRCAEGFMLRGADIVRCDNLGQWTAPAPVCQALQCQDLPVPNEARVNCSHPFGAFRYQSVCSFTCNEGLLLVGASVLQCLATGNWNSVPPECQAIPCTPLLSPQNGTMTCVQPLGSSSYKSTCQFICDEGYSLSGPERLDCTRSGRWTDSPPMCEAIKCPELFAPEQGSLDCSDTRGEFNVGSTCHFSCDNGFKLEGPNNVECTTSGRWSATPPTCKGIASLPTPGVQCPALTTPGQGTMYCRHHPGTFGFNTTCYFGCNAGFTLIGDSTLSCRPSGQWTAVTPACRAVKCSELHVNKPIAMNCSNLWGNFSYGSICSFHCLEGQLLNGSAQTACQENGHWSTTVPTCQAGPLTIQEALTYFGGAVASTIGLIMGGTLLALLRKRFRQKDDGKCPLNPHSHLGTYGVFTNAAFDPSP
The experiment in a line: Neutrophil adhesion to purified P-selectin immobilized on plastic wells (myeloperoxidase readout). The settings on record: inhibition of binding of human neutrophils to human P-selectin; head: 0.3 μM peptide, text b193: 300 μM; read-out: % INHIBITION AT 0.3 μM PEPTIDE CONC. The assay is classed as cell-based. The source says: Peptides can be screened for their ability to inhibit adhesion to cells, for example, neutrophil adhesion to purified P-selectin immobilized on plastic wells, using the assay described by Geng, et al., Nature 343, 757-760 (1990).
Human neutrophils are isolated from heparinized whole blood by density gradient centrifugation on Mono-Poly resolving media, Flow Laboratories. Neutrophil suspensions are greater than 98% pure and greater than 95% viable by trypan blue exclusion. For adhesion assays, neutrophils are suspended at a concentration of 2×10^6 cells/mL in Hanks' balanced salt solution containing 1.26 mM Ca^2+ and 0.81 mM Mg^2+ (HBSS, Gibco) with […] human serum albumin (HBSS/HSA). Adhesion assays are conducted in triplicate in 96-well microtiter plates, Corning, incubated at 4° C. overnight with 50 microliters of various protein solutions.
P-selectin is isolated from human platelet lysates by immunoaffinity chromatography on antibody S12-Sepharose™ and ion-exchange chromatography on a Mono-Q™ column (FLPC, Pharmacia Fine Chemicals), as follows.
Outdated human platelet packs (100 units) obtained from a blood bank and stored at 4° C. are pooled, adjusted to 5 mM EDTA at pH 7.5, centrifuged at 4,000 rpm for 30 minutes in 1 liter bottles, then washed three times with 1 liter of 0.1 M NaCl, 20 mM Tris pH 7.5 (TBS), 5 mM EDTA, 5 mM benzamidine.
The pellets are then resuspended in a minimum amount of wash buffer and made 1 mM in DIFP, then frozen in 50 mL screwtop tubes at -80° C. The frozen platelets are thawed and resuspended in 50 mL TBS, 5 mM benzamidine, 5 mM EDTA pH 7.5, 100 µM leupeptin. The suspension is frozen and thawed two times in a dry ice-acetone bath using a 600 mL lyophilizing flask, then homogenized in a glass/teflon mortar and pestle and made 1 mM in DIFP. The NaCl concentration is adjusted to 0.5 M with a stock solution of 4 M NaCl. After stirring the suspension at 4° C., it is centrifuged in polycarbonate tubes at 33,000 rpm for 60 minutes at 4° C. The supernatant (0.5 M NaCl wash) is removed and saved; this supernatant contains the soluble form of P-selectin. Care is taken not to remove the top part of the pellet with the supernatant. The pellets are then homogenized in extraction buffer (TBS, 5 mM benzamidine, 5 mM EDTA, pH 7.5, 100 μM leupeptin, 2% Triton X-100). After centrifugation at 19,500 rpm for 25 minutes at 4° C., the supernatant is removed. The extraction procedure is repeated with the pellet and the supernatant is combined with the first supernatant. The combined extracts, which contain the membrane form of P-selectin, are adjusted to 0.5 M NaCl.
The soluble fraction (0.5 M NaCl wash) and the membrane extract (also adjusted to 0.5 M NaCl) are absorbed with separate pools of the monoclonal antibody S12 (directed to P-selectin) previously coupled to Affigel (Biorad) at 5 mg/mL for 2 hours at 4° C. After letting the resins settle, the supernatants are removed. The S12 Affigel containing bound GMP-140 is then loaded into a column and washed overnight at 4° C. with 400 mL of 0.5 M NaCl, 20 mM Tris pH 7.5, 0.01% Lubrol PX.
Bound P-selectin is eluted from the S12 Affigel with 100 mL of 80% ethylene glycol, 1 mM MES pH 6.0, 0.01% Lubrol PX. Peak fractions with absorbance at 280 nm are pooled. Eluates are dialyzed against TBS with 0.05% Lubrol, then applied to a Mono Q column (FPLC from Pharmacia). The concentrated protein is step eluted with 2 M NaCl, 20 mM Tris pH 7.5 (plus 0.05% Lubrol PX for the membrane fraction). Peak fractions are dialyzed into TBS pH 7.5 (plus 0.05% Lubrol PX for the membrane fraction).
P-selectin is plated at 5 micrograms/mL and the control proteins: human serum albumin (Alb), platelet glycoprotein IIb/IIIa (IIb), von Willebrand factor (vWF), fibrinogen (FIB), thrombomodulin (TM), gelatin (GEL) or human serum (HS), are added at 50 micrograms/mL. […]
In general, inhibition refers to the relative decrease from the control value, in per cent. With `CC[C@H](C)[C@H](NC(=O)[C@H](CO)NC(=O)[C@H](CC(N)=O)NC(=O)[C@H](CC(C)C)NC(=O)[C@H](Cc1ccc(O)cc1)NC(=O)[C@@H](N)CCC(=O)O)C(=O)N[C@@H](CC(C)C)C(=O)N[C@@H](CO)C(=O)N[C@@H](Cc1ccc(O)cc1)C(=O)N[C@@H](CO)C(=O)N1CCC[C@H]1C(=O)N[C@@H](CO)C(=O)N[C@@H](Cc1ccc(O)cc1)C(=O)N[C@@H](Cc1ccc(O)cc1)C(=O)N[C@@H](Cc1c[nH]c2ccccc12)C(N)=O` [SEQ ID NO: 23, Glu--Tyr--Leu--Asn--Ser--Ile--Leu--Ser--Tyr--Ser--Pro--Ser--Tyr--Tyr--Trp-NH2] (H-EYLNSILSYSPSYYW-NH2), the inhibition at 300 µM stood at 54%. For `CC(C)[C@H](NC(=O)[C@@H](N)CCCCN)C(=O)N[C@@H](CCC(N)=O)C(=O)N1CCC[C@H]1C(=O)N[C@@H](Cc1ccc(O)cc1)C(=O)N[C@@H](Cc1ccc(O)cc1)C(=O)N[C@@H](CO)C(=O)N[C@@H](CO)C(=O)N[C@@H](Cc1ccc(O)cc1)C(=O)N[C@@H](Cc1ccc(O)cc1)C(N)=O` [SEQ ID NO: 22, Lys--Val--Gln--Pro--Tyr--Tyr--Ser--Ser--Tyr--Tyr-NH2] (H-KVQPYYSSYY-NH2), the inhibition at 300 µM amounted to 29%. With `CC(C)C[C@H](NC(=O)[C@@H](NC(=O)[C@@H](N)CCCCN)C(C)C)C(=O)N1CCC[C@H]1C(=O)N[C@@H](Cc1ccc(O)cc1)C(=O)N[C@@H](Cc1ccc(O)cc1)C(=O)N[C@@H](CO)C(=O)N[C@@H](C)C(=O)N[C@@H](Cc1ccc(O)cc1)C(=O)N[C@@H](Cc1ccc(O)cc1)C(N)=O` [SEQ ID NO: 14, Lys--Val--Leu--Pro--Tyr--Tyr--Ser--Ala--Tyr--Tyr-NH2] (H-KVLPYYSAYY-NH2), the inhibition at 300 µM came out at 18%. On to `CC(C)C[C@H](NC(=O)[C@@H](NC(=O)[C@H](CCCCN)NC(=O)[C@H](CC(N)=O)NC(=O)[C@@H](N)CC(C)C)C(C)C)C(=O)N1CCC[C@H]1C(=O)N[C@@H](Cc1ccc(O)cc1)C(=O)N[C@@H](Cc1ccc(O)cc1)C(=O)N[C@@H](CO)C(=O)N[C@@H](CO)C(=O)N[C@@H](Cc1ccc(O)cc1)C(=O)N[C@@H](Cc1ccc(O)cc1)C(=O)N[C@H](C(N)=O)C(C)C` [SEQ ID NO: 3, Leu--Asn--Lys--Val--Leu--Pro--Tyr--Tyr--Ser--Ser--Tyr--Tyr--Val-NH2] (H-LNKVLPYYSSYYV-NH2), for which the inhibition at 300 µM worked out at 100%. On to `CC(C)C[C@H](NC(=O)[C@@H](NC(=O)[C@@H](N)CCCCN)C(C)C)C(=O)N1CCC[C@H]1C(=O)N[C@@H](Cc1ccc(O)cc1)C(=O)NCC(=O)N[C@@H](CO)C(=O)N[C@@H](CO)C(=O)N[C@@H](Cc1ccc(O)cc1)C(=O)N[C@@H](Cc1ccc(O)cc1)C(N)=O` [SEQ ID NO: 19, Lys--Val--Leu--Pro--Tyr--Gly--Ser--Ser--Tyr--Tyr-NH2] (H-KVLPYGSSYY-NH2), for which the inhibition at 300 µM is 34%. Take `CC(C)C[C@H](NC(=O)[C@H](Cc1ccc(O)cc1)NC(=O)[C@@H](N)CC(=O)O)C(=O)N[C@@H](CC(N)=O)C(=O)N[C@@H](CCCCN)C(=O)N[C@H](C(=O)N[C@@H](CC(C)C)C(=O)N1CCC[C@H]1C(=O)N[C@@H](Cc1ccc(O)cc1)C(=O)N[C@@H](Cc1ccc(O)cc1)C(=O)N[C@@H](CO)C(=O)N[C@@H](CO)C(=O)N[C@@H](Cc1ccc(O)cc1)C(=O)N[C@@H](Cc1ccc(O)cc1)C(N)=O)C(C)C` [SEQ ID NO: 6, Asp--Tyr--Leu--Asn--Lys--Val--Leu--Pro--Tyr--Tyr--Ser--Ser--Tyr--Tyr-NH2] (H-DYLNKVLPYYSSYY-NH2): the inhibition at 300 µM turned out to be 61%. `CC(C)C[C@H](NC(=O)[C@@H](NC(=O)[C@@H](N)CCCCN)C(C)C)C(=O)N1CCC[C@H]1C(=O)N[C@@H](Cc1ccc(O)cc1)C(=O)N[C@@H](Cc1ccc(O)cc1)C(=O)N[C@@H](CO)C(=O)N[C@@H](CO)C(=O)N[C@@H](Cc1ccc(O)cc1)C(=O)N[C@@H](Cc1ccc(O)cc1)C(=O)N[C@H](C(N)=O)C(C)C` [SEQ ID NO: 5, Lys--Val--Leu--Pro--Tyr--Tyr--Ser--Ser--Tyr--Tyr--Val-NH2] (H-KVLPYYSSYYV-NH2): the inhibition at 300 µM is 102%. With `CC(C)C[C@H](NC(=O)[C@@H](N)C(C)C)C(=O)N1CCC[C@H]1C(=O)N[C@@H](Cc1ccc(O)cc1)C(=O)N[C@@H](Cc1ccc(O)cc1)C(=O)N[C@@H](CO)C(=O)N[C@@H](CO)C(=O)N[C@@H](Cc1ccc(O)cc1)C(=O)N[C@@H](Cc1ccc(O)cc1)C(=O)N[C@H](C(N)=O)C(C)C` [SEQ ID NO: 10, Val--Leu--Pro--Tyr--Tyr--Ser--Ser--Tyr--Tyr--Val-NH2] (H-VLPYYSSYYV-NH2) the figure was 66%.
